From the NIST ThermoML archive (doi:10.1016/j.jct.2016.04.009)

Assays:
[1] = Molar enthalpy of transition or fusion; details: Crystal; DSC
[2] = molar heat capacity at constant pressure; details: 101.33 kPa
[3] = DSC

Cn1cc[n+](Cc2ccccc2)c1.F[P-](F)(F)(F)(F)F [1-benzyl-3-methylimidazolium hexafluorophosphate]
Details | Glass transition temperature [°C] | Molar enthalpy of transition or fusion [kcal/mol]
[1] | – | 5.95
[3] | -28.3 | –

[2], Crystal
Details | molar heat capacity at constant pressure [J/K/mol]
258.09 K, Small sample (50 mg) DSC | 321.38
263.2 K, Small sample (50 mg) DSC | 325.69
268.3 K, Small sample (50 mg) DSC | 330.39
273.41 K, Small sample (50 mg) DSC | 335.64
278.51 K, Small sample (50 mg) DSC | 339.82
283.62 K, Small sample (50 mg) DSC | 344.42
288.72 K, Small sample (50 mg) DSC | 348.47
293.83 K, Small sample (50 mg) DSC | 352.84
298.15 K, Drop calorimetry | 360.42
298.93 K, Small sample (50 mg) DSC | 357.16
304.04 K, Small sample (50 mg) DSC | 361.74
309.14 K, Small sample (50 mg) DSC | 366.16
314.25 K, Small sample (50 mg) DSC | 371.17
319.35 K, Small sample (50 mg) DSC | 376.2
324.46 K, Small sample (50 mg) DSC | 380.3
329.56 K, Small sample (50 mg) DSC | 384.8
334.67 K, Small sample (50 mg) DSC | 389.73
339.77 K, Small sample (50 mg) DSC | 394.64
344.88 K, Small sample (50 mg) DSC | 399.86
349.98 K, Small sample (50 mg) DSC | 404.92
355.09 K, Small sample (50 mg) DSC | 410.63

Details | Triple point temperature [K]
[3], Crystal | 399.7

C[n+]1ccn(Cc2ccccc2)c1.O=S(=O)([N-]S(=O)(=O)C(F)(F)F)C(F)(F)F
[2], Liquid
Details | molar heat capacity at constant pressure [J/K/mol]
258.09 K, Small sample (50 mg) DSC | 588.22
263.2 K, Small sample (50 mg) DSC | 589.8
268.3 K, Small sample (50 mg) DSC | 592.39
273.38 K, Small sample (50 mg) DSC | 596.83
278.51 K, Small sample (50 mg) DSC | 597.13
283.61 K, Small sample (50 mg) DSC | 599.43
288.72 K, Small sample (50 mg) DSC | 601.59
293.82 K, Small sample (50 mg) DSC | 603.91
298.15 K, Drop calorimetry | 598.96
298.93 K, Small sample (50 mg) DSC | 606.63
304.03 K, Small sample (50 mg) DSC | 609.41
309.14 K, Small sample (50 mg) DSC | 611.94
314.24 K, Small sample (50 mg) DSC | 615.52
319.35 K, Small sample (50 mg) DSC | 618.97
324.45 K, Small sample (50 mg) DSC | 621.42
329.41 K, Small sample (50 mg) DSC | 624.07
334.67 K, Small sample (50 mg) DSC | 626.99
339.78 K, Small sample (50 mg) DSC | 630.16
344.88 K, Small sample (50 mg) DSC | 633.62
349.99 K, Small sample (50 mg) DSC | 636.94
355.08 K, Small sample (50 mg) DSC | 640.33

Details | Glass transition temperature [°C]
[3] | -56.4
